From US20250325712A1, “TARGETING LIGANDS FOR DISEASE-TARGETED IMAGING AGENTS AND METHODS OF USE THEREFOR” (Curadel Surgical Innovations, Inc., priority 2024, published 2025) come the findings set out here.

SMILES strings stand for the structures.

The nature of this data set: Stability of dyes in 37° C. buffered fetal bovine serum (normalized absorbance and absorbance spectra over time). Type of data set: in vitro ADME. The settings on record: compared to ZW800-1. How it is done:
The normalized absorbance of ZW800-1 and ZW700-1c in 37° C. buffered FBS, pH 7.4 over time from 0 to 60 hours are shown in FIGS. 2-4.

For the molecule `CC1(C)C(/C=C/C(=C/C=C2/N(CCC[N+](C)(C)C)c3ccc(S(=O)(=O)[O-])cc3C2(C)C)c2ccc(CCC(=O)[O-])cc2)=[N+](CCC[N+](C)(C)C)c2ccc(S(=O)(=O)[O-])cc21` [ZW700-1c], the “stability: normalized absorbance over time” value (37° C. buffered FBS, pH 7.4, 0 to 60 hours) is listed as “extreme stability”. Under “warm serum (37° C. buffered FBS, pH 7.4, 0 to 48 hours)”, the “stability over time: changes in absorption spectra during metabolism in warm serum” value is “high stability”.
